According to a melting point compilation (Tetko et al.; mined from patent text by program, amines drawn as free bases though some values may be those of a salt):

SMILES	melting point
CCCCN1NC(=O)CC2CCc3cc(N)ccc3C21 (configuration not stated)	140 to 142 °C
CN1CCN(C(=O)Cn2nc(-c3ccccc3O)nc2-c2ccccc2O)CC1	199 to 201 °C
O=C(NCCO)c1cccc(-c2ccc3c(c2)C(Oc2ccc(Cl)cc2Cl)CCC3)c1 (configuration not stated)	171 to 172 °C
COc1ccc2c(c1)OC(C#N)=CO2	92 °C
COC(=O)NNc1cc(C)cc2c1OC(C)C2 (configuration not stated)	82 to 84 °C
CN(c1ccc(S(C)(=O)=O)cc1)S(=O)(=O)c1cccc(NC(=O)c2ccc(S(C)(=O)=O)cc2)c1	213 to 215 °C
CCCCOc1cc(O)c(C#N)s1	107 °C
COc1cc(Nc2nc3cccc(-c4cccc(CN)c4)c3o2)cc(OC)c1OC	145 to 150 °C
CC(C)(C)NC(=O)OC1CCOC1=O (configuration not stated)	104 to 106 °C
Cc1ccc(C)c(-c2cccc3c2OC(CN)C3)c1 (configuration not stated)	> 225 °C
O=C(CC1CCCCC1)Nc1ccc2oc3c(c2c1)CCCCC3	188 to 189 °C
O=c1ccccn1[C@@H]1c2ccccc2OCC[C@H]1O (relative stereo)	232 to 234 °C
CC(C)n1c(C=O)c(-c2ccc(F)cc2)c(-c2ccccc2)c1C(=O)O	219 to 220 °C
Cc1cc(C#N)cc(C(=O)c2c(C(C)C)c(=O)[nH]c(=O)n2CC2(CC(=O)O)CC2)c1	244 to 245 °C
O=C(Nc1nc2cnccc2s1)Oc1ccccc1	> 290 °C
COc1ccc(/C=C/c2ncccc2C(=O)O)cc1	230 to 233 °C
CCc1ccc(Cc2c(OCc3ccccc3)n[nH]c2C)cc1	80 to 83 °C
CC(C)(C)C(=O)Nc1cnc(C(=O)CO)cn1	169 to 172 °C
COc1ccc(OC)c2c1C(=O)c1c(O)ccc(O)c1C2=O	297 to 300 °C
CC(CCc1ccccc1)NCC(O)c1cc(C(N)=O)c2[nH]ccc2c1 (configuration not stated)	94 to 100 °C
C=CC(=O)OCC1(COC(=O)C=C)c2ccccc2-c2ccccc21	73 to 75 °C

SMILES	melting point
CCOC(=O)c1ccsc1NC(=O)NCCN1CCN(c2ccccc2)CC1	117 to 120 °C
CCCCCN(CCCCC)CCCOC(=O)c1ccc2c(c1)-c1ccc(C(=O)OCCCN(CCCCC)CCCCC)c3cccc-2c13	148 to 151 °C
COc1cc2c(c(Cl)c1Cl)C(=O)CCC2	132 °C
C=CCC12CCN=C1C(Br)Cc1ccc(OC)cc12 (configuration not stated)	112 to 117 °C
CS(=O)(=O)N(N)C(=O)c1cc([N+](=O)[O-])c(C(F)(F)F)cc1N	221 to 227 °C
C#CCOc1cc(C(N)=O)cc(Cl)c1OCC#C	122 to 125 °C
Cc1c(C)c(N(C)C(=O)CC(C)(C)C)c(C)c2c1OCC2c1ccc(C(C)C)cc1 (configuration not stated)	80 to 82 °C
CCCCSc1cc2nc3ccccc3sc-2cc1=O	133 °C
O=C(O)COc1ccc2c(=O)c3cc(Cl)ccc3oc2c1Cl	262 to 263 °C
CC(C)(C)c1cc(OCCCCC(=O)O)cc(C(C)(C)C)c1	113 to 115 °C
CCC(O)c1ccc(Cl)c2nc3n(c12)CCCN3c1c(Cl)cc(OC)cc1Cl (configuration not stated)	206 to 208 °C
Cn1cnc(S(=O)(=O)O)c1Cl	309 to 310 °C
COc1ccc(O)c(C2(O)C(=O)Nc3cccc(Br)c32)n1 (configuration not stated)	172 to 175 °C
CCN(CC)CCOc1ccc(Nc2ncc3c(n2)N(C)C(=O)N(c2cc(Cl)ccc2Cl)C3)cc1	138 °C
COc1ccc(-c2[nH]c3cn[nH]c(=O)c3c2Cl)cc1OC1CCC1	285 to 287 °C
COC(=O)Oc1ccc(F)cc1Br	75 to 78 °C
Nc1ccc(Sc2cc(Cl)cc(Cl)c2)c(Cl)c1	157 to 160 °C
CCCCN(CCCC)CCCOc1ccc(-c2cn3cccc(C)c3n2)cc1C	63 to 66 °C
CN1CCC(OC(c2cccc(SCCNC(=N)NC#N)c2)c2nc3ccccc3[nH]2)CC1 (configuration not stated)	65 °C
Nc1c(C(=O)Cc2ccccc2)[nH]c2cc(Cl)ccc12	204 to 205 °C
CNC(=O)c1cccc(NC(=O)Cc2cccc(O)c2)c1	163 °C
